The values below come from US20240173332A1, “BENZO[…] TREATING OR PREVENTING RESPIRATORY SYNCYTIAL VIRUS INFECTION” (Pfizer Inc., priority 2021, published 2024).

One data set deals with RSV A2. Briefly: RSV plaque reduction assay in Hep-G2 cells. Type of data set: cell-based, respiratory syncytial virus (RSV). Particulars: Hep-G2 cells, RSV A2, 2 days, mean of at least two experiments, read-out: RSV A2 Plaque EC50. Here is the method: Compounds were subjected to RSV plaque reduction assays according to the following protocol. Plaque EC50 and cell toxicity CC50 values are a mean of at least two experiments and figures are rounded to whole units.
Hep-G2 cells (ECACC, 85011430) were passaged in flasks and seeded in 24-well plates in DMEM containing antibiotics and supplemented with 10% FBS. During inoculation and subsequent incubation, cells were cultured in DMEM containing 2% FBS. 100 plaque forming unit/well of RSV (RSV A2 ECACC, 0709161v) was mixed with eight serial dilutions of compound. Subsequently, 100 μL of the virus/compound mixtures was added to confluent Hep-G2 cell monolayers. The cells and virus/compound mixtures were incubated at 37° C. in a humidified 5% CO2 incubator for 2 h prior to removal of the inoculum and addition of 1 mL of overlay (DMEM containing 2% FBS and 0.8% CMC) containing compound dilutions. The cells and were incubated at 37° C. in a humidified 5% CO2 incubator for 2 days.
Cells were washed with PBS before adding 75/25% v/v EtOH/MeOH, for 3 min. Fixative was removed and plates were washed with PBS. A pre-titrated amount of the primary antibody was added in 200 μL PBS/2% milk powder, and plates incubated for 90 min at 37° C. The plates were washed 3 times with PBS/0.05% Tween20 before addition of rabbit anti-goat horse radish peroxidase in 200 μL PBS/2% milk powder, and incubated for 1 h at 37° C. Following three wash steps with PBS/0.05% Tween20, 200 μL ready-to-use TrueBlue was added and plates were incubated at rt for 10-15 min before washing with water. After removal of water, plates were air-dried in the dark. Plates were scanned and analysed using the Immunospot S6 Macro analyser, which is equipped with BioSpot analysis software for counting immunostained plaques (virospots). Plaque counts were used to calculate % infection relative to the mean of the plaque count in the virus control wells for RSV. The EC50 value was calculated as 50% reduction in signal, respectively, by interpolation of inhibition curves fitted with a 4-parameter nonlinear regression with a variable slope in Dotmatics. Plaque EC50 and cell toxicity CC50 values are a mean of at least two experiments and figures are rounded to whole units.
On the technique in general: Plaques are areas of infected cells; plaque reduction assays count them against a control.

Data set [1] can be described thus: Liver microsomal stability, human. Type of data set: in vitro ADME. The conditions noted are these: 1 μM compound, NADPH; for half-life at 1 μM: pooled liver microsomes, pH 7.4, 0.5 mg/mL protein, read-out: Liver Microsomal Stability t1/2. The protocol: (§1) Compounds were subjected to the following assays to investigate liver microsomal stability and hepatocyte stability.
(§2) Pooled liver microsomes were purchased from a reputable commercial supplier and stored at −80° C. prior to use. Microsomes (final protein concentration 0.5 mg/mL), 0.1 M phosphate buffer pH 7.4 and test compound (final substrate concentration 1 μM; final DMSO concentration 0.25%) were pre-incubated at 37° C. prior to the addition of NADPH (final concentration 1 mM) to initiate the reaction. The final incubation volume was 50 μL. A control incubation was included for each compound tested where 0.1 M phosphate buffer pH 7.4 was added instead of NADPH (minus NADPH). Two control compounds were included with each species. All incubations were performed singularly for each test compound. Each compound was incubated for 0, 5, 15, 30 and 45 min. The control (minus NADPH) was incubated for 45 min only. The reactions were stopped by transferring incubate into acetonitrile at the appropriate time points, in a 1:3 ratio. The termination plates are centrifuged at 3,000 rpm for 20 min at 4° C. to precipitate the protein. Following protein precipitation, the sample supernatants were combined in cassettes of up to 4 compounds, internal standard added, and samples analysed by LC-MS/MS. From a plot of In peak area ratio (compound peak area/internal standard peak area) against time, the gradient of the line was determined. Subsequently, half-life (t1/2) and intrinsic clearance (CLint) were calculated.
In general terms: Liver microsomes are vesicles of endoplasmic reticulum, rich in cytochrome P450 enzymes.

For the next data set, the system named is Hep-G2 cells. Briefly: Cell cytotoxicity CC50. Type of data set: cell-based. The conditions noted are these: mean of at least two experiments unless (n = 1).
A short description of data set [2]: Liver microsomal stability, dog. Type of data set: in vitro ADME. Particulars: 1 μM compound, NADPH; for half-life at 1 μM: pooled liver microsomes, pH 7.4, 0.5 mg/mL protein, read-out: Liver Microsomal Stability t1/2. The protocol:
as §1, §2

Data set [3] in a line: Liver microsomal stability, rat. The conditions noted are these: 1 μM compound, NADPH; for half-life at 1 μM: pooled liver microsomes, pH 7.4, 0.5 mg/mL protein, read-out: Liver Microsomal Stability t1/2. Format: in vitro ADME. The protocol: as §1, §2
Another data set in a line: Cell cytotoxicity CC50. Format: cell-based. Particulars: human, Hep-G2 cells; mean of at least two experiments unless (n = 1).
[4] abbreviates: human respiratory syncytial virus, HepG2, 48 h.

pEC50: −log10 of the molar value. Structures can show the parent of a compound that is named as a salt. Where two headings read alike, the source gives them in different places. Some results are limits rather than exact numbers.

For “2-[2-Fluoro-4-(hydroxymethyl)phenyl]-N-[(3S)-2-oxo-5-phenyl-1,3-dihydro-1,4-benzodiazepin-3-yl]pyrazolo[1,5-a]pyrimidine-3-carboxamide [Example 2]”, in the data set with RSV A2, the pEC50 is 7.40. For the same compound, the “Liver Microsomal Stability t1/2” value in data set [1] (human liver microsomes, 0.5 mg/mL protein) stood at 1.95 h; in data set [2] (dog liver microsomes, 0.5 mg/mL protein), 0.887 h; in data set [3] (rat liver microsomes, 0.5 mg/mL protein), 0.957 h. The same compound yielded a CC50 in the data set on Hep-G2 cells greater than 25000 nM.

Take `CC(O)c1ccc(-c2nn3cccnc3c2C(=O)N[C@H]2N=C(c3ccccc3)c3ccccc3NC2=O)c(F)c1` (single isomer, unassigned) [Example 16-2, 2-[2-Fluoro-4-[(1R*)-1-hydroxyethyl]phenyl]-N-[(3S)-2-oxo-5-phenyl-1,3-dihydro-1,4-benzodiazepin-3-yl]pyrazolo[1,5-a]pyrimidine-3-carboxamide]: the pEC50 in the data set with RSV A2 was 7.96. The compound also registered a CC50 with Hep-G2 cells greater than 2500 nM.

Take `CC(O)c1ccc(-c2nn3cccnc3c2C(=O)N[C@H]2N=C(c3ccccc3)c3cccc(F)c3NC2=O)c(F)c1` (single isomer, unassigned) [Example 17-2, 2-[2-Fluoro-4-[(1R*)-1-hydroxyethyl]phenyl]-N-[(3S)-9-fluoro-2-oxo-5-phenyl-1,3-dihydro-1,4-benzodiazepin-3-yl]pyrazolo[1,5-a]pyrimidine-3-carboxamide]: the pEC50 in the data set with RSV A2 is 8.11. This compound displayed a CC50 in the data set on Hep-G2 cells greater than 2500 nM.

On to `O=C(N[C@H]1N=C(c2ccccc2)c2cccc(F)c2NC1=O)c1c(-c2cnn(CC(F)(F)F)c2)nn2cccnc12` [Example 3, N-[(3S)-9-fluoro-2-oxo-5-phenyl-1,3-dihydro-1,4-benzodiazepin-3-yl]-2-[1-(2,2,2-trifluoroethyl)pyrazol-4-yl]pyrazolo[1,5-a]pyrimidine-3-carboxamide], for which the pEC50 in the data set with RSV A2 (setting [4]) is 7.18. Moreover, the half-life at 1 μM is greater than 2.33 h in data set [1], 1.78 h in data set [2] and 3.48 h in data set [3]. The CC50 in “Cell cytotoxicity CC50” was greater than 25000 nM.

As for `O=C(N[C@H]1N=C(c2ccccc2)c2cccc(F)c2NC1=O)c1c(-c2cnn(C3CCOCC3)c2)nn2cccnc12` [Example 6, N-[(3S)-9-fluoro-2-oxo-5-phenyl-1,3-dihydro-1,4-benzodiazepin-3-yl]-2-[1-(oxan-4-yl)pyrazol-4-yl]pyrazolo[1,5-a]pyrimidine-3-carboxamide], in the data set on RSV A2 (setting [4]), the pEC50 is 7.31. Also, the half-life at 1 μM in data set [1] amounted to 4.32 h; in data set [2], 2.07 h; in data set [3], 1.42 h. Also, the CC50 in the data set “Cell cytotoxicity CC50” was greater than 25000 nM.

As for `CCn1cc(-c2nn3cccnc3c2C(=O)N[C@H]2N=C(c3ccccc3)c3cccc(F)c3NC2=O)cn1` [Example 13, 2-(1-Ethylpyrazol-4-yl)-N-[(3S)-9-fluoro-2-oxo-5-phenyl-1,3-dihydro-1,4-benzodiazepin-3-yl]pyrazolo[1,5-a]pyrimidine-3-carboxamide], the pEC50 in the data set with RSV A2 (setting [4]) was 7.24. Further, the half-life at 1 μM in data set [1] is 8.93 h; in data set [2], 6.82 h; in data set [3], 7.52 h. In “Cell cytotoxicity CC50”, the CC50 is greater than 25000 nM.

As for `CC(C)(O)c1ccc(-c2nn3cccnc3c2C(=O)N[C@H]2N=C(c3ccccc3)c3cccc(F)c3NC2=O)c(F)c1` [Example 19, 2-[2-Fluoro-4-(2-hydroxypropan-2-yl)phenyl]-N-[(3S)-9-fluoro-2-oxo-5-phenyl-1,3-dihydro-1,4-benzodiazepin-3-yl]pyrazolo[1,5-a]pyrimidine-3-carboxamide], the pEC50 in the data set on RSV A2 (setting [4]) is 8.07. For the same compound, the figures for the half-life at 1 μM in data set [1], in data set [2] and in data set [3] were 2.82 h, 1.22 h and 2.43 h, respectively. The CC50 in the data set “Cell cytotoxicity CC50” is greater than 25000 nM.

On to `NCC(=O)OCc1ccc(-c2nn3cccnc3c2C(=O)N[C@H]2N=C(c3ccccc3)c3ccccc3NC2=O)c(F)c1` [Example 29, 3-Fluoro-4-(3-{[(3S)-2-oxo-5-phenyl-1,3-dihydro-1,4-benzodiazepin-3-yl]carbamoyl}pyrazolo[1,5-a]pyrimidin-2-yl)phenyl]methyl aminoacetate hydrochloride], for which the pEC50 with RSV A2 was 7.31. The same compound displayed a 50% cytotoxic concentration (CC50) with Hep-G2 cells greater than 25000 nM.

With `CC(C)[C@H](N)C(=O)OCc1ccc(-c2nn3cccnc3c2C(=O)N[C@H]2N=C(c3ccccc3)c3ccccc3NC2=O)c(F)c1` [Example 30, [3-Fluoro-4-(3-{[(3S)-2-oxo-5-phenyl-1,3-dihydro-1,4-benzodiazepin-3-yl]carbamoyl}pyrazolo[1,5-a]pyrimidin-2-yl)phenyl]methyl (2S)-2-amino-3-methylbutanoate hydrochloride], in the data set on RSV A2 (setting [4]), the pEC50 was 7.36. This compound registered a CC50 in the data set “Cell cytotoxicity CC50” greater than 25000 nM.

Usually pEC50 stands for the EC50 on a negative log10 scale, so that one unit is a factor of ten. A word on the CC50: it is the concentration giving 50% cytotoxicity. A higher CC50 goes with lower toxicity to the cells.
